Assays:
[1] = system: immunoglobulin free λ light chain; experiment: Immunoglobulin free λ light chain secretion in KMS-28BM cells, ELISA; format: cell-based, human; details: KMS-28BM culture supernatant after 10 days, control 48 μg/L
Protocol: The inhibitory effect of each compound on immunoglobulin free λ light chain secretion was examined by enzyme-linked immunosorbent assay (ELISA) using KMS-28BM cells.
(§1) As a control, compounds untreated KMS-28BM cells were seeded in 75 cm^2 flasks and incubated for 10 days at 37° C. and 5% CO2. KMS-28BM cells were seeded into 75 cm^2 flasks and pre-cultured for 4 h. After incubation, KMS-28BM cells were treated with […], 0.05 μM M9, 0.1 μM yk-7, 0.1 μM yk-8-3, 50 μM yk-8-1, 0.5 μM M11, […], 0.005 μM M14, 0.005 μM M15, 0.005 μM M16, 0.5 μM M18, and 0.5 μM M19 at final concentrations, and incubated for 10 days at 37° C. and 5% CO2. After 10 days of incubation, the culture supernatant was collected and immunoglobulin free λ light chain secretion was measured by ELISA. This measurement was performed using a human anti-λchain antibody ELISA kit (Funakoshi).

IL-6 = IL-6 secretion in KMS-28BM cells, Luminex; format: cell-based, human; details: KMS-28BM culture supernatant after 10 days; compounds at 0.005-50 μM; control 143 μg/mL
Protocol: The inhibitory effect of each compound on IL-6 secretion was examined using Luminex in KMS-28BM cells.
as §1, with “the” for “immunoglobulin free λ light chain”, “secretion of IL-6, a bone destruction-related factor and a growth-promoting factor,” for “secretion”, “Luminex. The human Magnetic Luminex Assay (R&D)” for “ELISA. This measurement”, “used for this measurement.” for “performed using a human anti-λchain antibody ELISA kit (Funakoshi).”

[2] = system: immunoglobulin free λ light chain; experiment: Immunoglobulin free λ light chain secretion in L363 cells, ELISA; format: cell-based, human; details: L363 culture supernatant after 10 days, control 145 μg/L
Protocol: The inhibitory effect of each compound on immunoglobulin free λ light chain secretion was examined by enzyme-linked immunosorbent assay (ELISA) using L363 cells.
As a control, compounds untreated L363 cells were seeded in 75 cm^2 flasks and incubated for 10 days at 37° C. and 5% CO2. L363 cells were seeded into 75 cm^2 flasks and pre-cultured for 4 h. After incubation, L363 cells were treated with 0.1 μM M7, 0.05 μM M9, 0.1 μM yk-7, 0.1 μM yk-8-3, 50 μM yk-8-1, 0.1 μM M11, 0.01 μM M12, 0.005 μM M14, 0.005 μM M15, 0.005 μM M16, 1 μM M18, and 1 μM M19 at final concentrations, and incubated for 10 days at 37° C. and 5% CO2. After 10 days of incubation, the culture supernatant was collected and immunoglobulin free λ light chain secretion was measured by ELISA. This measurement was performed using a human anti-λ chain antibody ELISA kit (Funakoshi).

Raji cells = experiment: Tumor growth inhibition in mice transplanted with Raji cells; format: in vivo, NOD/ShiJic-scidJcl mice; details: oral 50 mg/kg daily, day 21, vs control group (P<0.01)
Protocol: Raji cells were transplanted into NOD/ShiJic-scidJcl mice, and the tumor growth inhibitory effect of oral administration of M9 and M14 was examined. As a result, a remarkable tumor growth inhibitory effect was observed.
Raji cells were transplanted into NOD/ShiJic-scidJcl mice, and the mice were orally administered M9 at 50 mg/kg and M14 at 50 mg/kg daily on day 0 when the average tumor volume exceeded 100 mm^3, and the tumor volume was measured on day 21.
The group that was only transplanted with Raji cells is called the control group, the group that was treated with M9 is called the M9-treated group, and the group that was treated with M14 is called the M14-treated group. Each group consisted of 5 animals.
Referring to the figure, the horizontal axis indicates drug treatment, and the vertical axis indicates tumor volume (percent of the control group).
White bars indicate the control group (labeled “Control”). Black bars indicate the M9 treatment group (labeled “50 mg/kg M9”) and vertical bars indicate the M14 treatment group (labeled “50 mg/kg M14”).

[3] = system: MEC-1 cells (chronic lymphocytic leukemia cell line); experiment: Cell death inducing effect on MEC-1 cells, trypan blue staining; format: cell-based; details: MEC-1 (CLL), cell viability
Protocol: MEC-1 cells (chronic lymphocytic leukemia cell line) were cultured under 5% CO2 at 37° C. The culture medium used RPMI-1640 medium with 100 μg/mL penicillin, 100 U/mL streptomycin and fetal bovine serum. MEC-1 cells were seeded into 96-well plates and incubated with each concentration of the compounds was added, and cell viability was determined by the trypan blue staining.
For controls, only 0.5% DMSO (diluted in PBS) used to dissolve the compounds was added. For each concentration, the codes “5, 6, 7, 8, 9, 10, 11, 12” and arrows are shown from left to right. The sign “5” is the M9 (formula (5)) administration group, the sign “6” is the M11 (formula (6)) administration group, the sign “7” is the M12 (formula (7)) administration group, the sign “8” is the M14 (formula (8)) administration group, the sign “9” is the M15 (formula (9)) administration group, the sign “10” is the M16 (formula (10)) administration group, the sign “11” is the M18 (formula (11)) administration group, the sign “12” is the M19 (formula (12)) administration group, respectively. The IC50 values for each compound is also listed in the upper right corner of the figure.

With `CCCCC(=O)OC[C@H]1O[C@@H](c2c(OC(=O)CCCC)cc3oc4cc(OC(=O)CCCC)c(OC(=O)CCCC)cc4c(=O)c3c2OC(=O)CCCC)[C@H](OC(=O)CCCC)[C@@H](OC(=O)CCCC)[C@@H]1OC(=O)CCCC` [yk-8-1, 1,3,2′,3′,4′,6,6′,7-octa-O-valerylmangiferin] the λ chain secretion ([1]; compounds at 0.005-50 μM) was 35 µg/L, the IL-6 secretion (IL-6) was 84 µg/mL and the λ chain secretion ([2]; compounds at 0.005-50 μM) was 119 µg/L.

In the case of `CCCC(=O)OC[C@H]1O[C@@H](c2c(O)cc3oc4cc(O)c(O)cc4c(=O)c3c2O)[C@H](OC(=O)CCC)[C@@H](OC(=O)CCC)[C@@H]1OC(=O)CCC` [Compound M14, 2′,3′,4′,6′-tetra-O-butyrylmangiferin], the “tumor growth (tumor volume, percent of the control group)” value (Raji cells) is reported as “significant inhibition of tumor growth” and the IC50 ([3]; Homo sapiens, MEC1) is reported as 8 nM.

Compound `O=c1c2cc(O)c(O)cc2oc2cc(O)cc(OCCO)c12` [Compound M18, 3,6,7-trihydroxy-1-(2-hydroxyethoxy)-9H-xanthen-9-one] has an IC50 ([3]; Homo sapiens, MEC1) of 3120 nM.

In the case of `CCC(=O)OC[C@H]1O[C@@H](c2c(O)cc3oc4cc(O)c(O)cc4c(=O)c3c2O)[C@H](OC(=O)CC)[C@@H](OC(=O)CC)[C@@H]1OC(=O)CC` [Compound M9, 2′,3′,4′,6′-tetra-O-propionylmangiferin], the “tumor growth (tumor volume, percent of the control group)” value (Raji cells) is reported as “significant inhibition of tumor growth” and the IC50 ([3]; Homo sapiens, MEC1) is reported as 454 nM.

With `CC(C)(C)C(=O)OC[C@H]1O[C@@H](c2c(O)cc3oc4cc(O)c(O)cc4c(=O)c3c2O)[C@H](OC(=O)C(C)(C)C)[C@@H](OC(=O)C(C)(C)C)[C@@H]1OC(=O)C(C)(C)C` [Compound M15, 2′,3′,4′,6′-tetra-O-pivaloylmangiferin] the IC50 ([3]; Homo sapiens, MEC1) was 9 nM.

Work on `CCCCO[C@@H]1[C@@H](OCCCC)[C@H](c2c(O)cc3oc4cc(O)c(O)cc4c(=O)c3c2O)O[C@H](COC(=O)CCC)[C@H]1OC(=O)CCC` [Compound M16, 2′,3′-di-O-butyl-4′,6′-di-O-butyrylmangiferin] yielded an IC50 ([3]; Homo sapiens, MEC1) of 7 nM.

Compound `CCCC(=O)OC[C@H]1O[C@@H](c2c(O)cc3oc4cc(O)c(O)cc4c(=O)c3c2OC(=O)CCC)[C@H](OC(=O)CCC)[C@@H](OC(=O)CCC)[C@@H]1OC(=O)CCC` [Compound M12, 1,2′,3′,4′,6-penta-O-butyrylmangiferin] has an IC50 ([3]; Homo sapiens, MEC1) of 12 nM.

`C=CCOc1cc(O)cc2oc3cc(O)c(O)cc3c(=O)c12` [Compound M19, 1-allyloxy-3,6,7-trihydroxy-9H-xanthen-9-one] showed an IC50 ([3]; Homo sapiens, MEC1) of 6890 nM.

`CCCC(=O)OC[C@H]1O[C@@H](c2c(OC(=O)CCC)cc3oc4cc(OC(=O)CCC)c(OC(=O)CCC)cc4c(=O)c3c2OC(=O)CCC)[C@H](OC(=O)CCC)[C@@H](OC(=O)CCC)[C@@H]1OC(=O)CCC` [Compound M11, 1,3,2′,3′,4′,6,6′,7-octa-O-butyrylmangiferin] gave a λ chain secretion ([1]; compounds at 0.005-50 μM) of 1.1 µg/L, an IC50 [3] of 575 nM and an IL-6 secretion (IL-6) of 12 µg/mL. The λ chain secretion ([2]; compounds at 0.005-50 μM) was 11 µg/L.

In the case of `CCC(=O)OC[C@H]1O[C@@H](c2c(OC(=O)CC)cc3oc4cc(OC(=O)CC)c(OC(=O)CC)cc4c(=O)c3c2OC(=O)CC)[C@H](OC(=O)CC)[C@@H](OC(=O)CC)[C@@H]1OC(=O)CC` [Compound M7, 1,3,2′,3′,4′,6,6′,7-octa-O-propionylmangiferin], the λ chain secretion ([1]; M7 group, unit printed g/L) is reported as 2.1e+06 µg/L and the λ chain secretion ([2]; M7 group, unit printed g/L) is reported as 2.3e+07 µg/L.
